These results are taken from article PMC4302234, “Multifunctional peptides derived from an egg yolk protein hydrolysate: isolation and characterization” (Amino Acids, 2014).

“And” between values parts separate entries of the source, which are not always exact repeats. Identical values can stand only once. No end group written: not given here.

Assay [1] concerns the target α-glucosidase. To be noted: peptide from ovalbumin; ref Yu et al. [2012]; read-out: α-glucosidase inhibitory activity IC50; cited from earlier work.
Assay [2] has as its target T1, ACE (EC 3.4.15.1; from rabbit lung) (Oryctolagus cuniculus, UniProt P12822).
T1 construct: The ACE (EC 3.4.15.1; from rabbit lung, Sigma, A6778); purchased Sigma A6778; host or cells: rabbit lung tissue
T1 sequence (P12822 34-1310): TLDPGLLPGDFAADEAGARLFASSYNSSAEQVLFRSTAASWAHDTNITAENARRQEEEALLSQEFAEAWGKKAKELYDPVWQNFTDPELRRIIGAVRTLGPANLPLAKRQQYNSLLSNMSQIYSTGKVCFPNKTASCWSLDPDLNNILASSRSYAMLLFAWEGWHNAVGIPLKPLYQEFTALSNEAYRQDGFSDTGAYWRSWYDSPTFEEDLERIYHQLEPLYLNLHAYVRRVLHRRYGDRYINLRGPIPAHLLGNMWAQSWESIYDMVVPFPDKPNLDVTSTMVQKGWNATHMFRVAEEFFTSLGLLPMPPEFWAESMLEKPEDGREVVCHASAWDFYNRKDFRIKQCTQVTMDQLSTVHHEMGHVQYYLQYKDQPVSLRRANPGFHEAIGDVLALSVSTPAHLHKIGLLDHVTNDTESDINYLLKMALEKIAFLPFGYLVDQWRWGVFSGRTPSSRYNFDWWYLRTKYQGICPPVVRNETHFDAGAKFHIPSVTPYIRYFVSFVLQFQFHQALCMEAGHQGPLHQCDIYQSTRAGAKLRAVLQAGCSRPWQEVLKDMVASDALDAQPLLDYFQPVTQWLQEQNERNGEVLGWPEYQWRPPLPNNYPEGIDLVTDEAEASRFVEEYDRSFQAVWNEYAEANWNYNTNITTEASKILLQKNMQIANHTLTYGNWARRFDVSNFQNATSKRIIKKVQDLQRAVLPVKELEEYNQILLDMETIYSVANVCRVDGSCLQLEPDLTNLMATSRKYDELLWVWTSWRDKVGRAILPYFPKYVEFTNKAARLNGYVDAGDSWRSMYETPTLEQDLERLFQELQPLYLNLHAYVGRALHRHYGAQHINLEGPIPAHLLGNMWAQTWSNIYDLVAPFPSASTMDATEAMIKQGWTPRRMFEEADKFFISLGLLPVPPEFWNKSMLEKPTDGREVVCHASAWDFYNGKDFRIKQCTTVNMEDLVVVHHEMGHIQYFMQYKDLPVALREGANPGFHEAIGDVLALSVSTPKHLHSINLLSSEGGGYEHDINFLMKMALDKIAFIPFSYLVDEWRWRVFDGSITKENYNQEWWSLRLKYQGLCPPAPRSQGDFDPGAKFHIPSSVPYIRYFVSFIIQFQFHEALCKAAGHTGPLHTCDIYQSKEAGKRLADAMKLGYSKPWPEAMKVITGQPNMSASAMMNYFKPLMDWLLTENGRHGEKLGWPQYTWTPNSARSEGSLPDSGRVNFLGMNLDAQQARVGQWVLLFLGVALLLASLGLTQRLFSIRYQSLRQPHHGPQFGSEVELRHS
Briefly: ACE inhibitory activity (HHL substrate, spectrophotometric). The assay is classed as biochemical. As to conditions: synthetic peptides; mean n = 3; read-out: Enzyme inhibitory activity (IC50) ACE (converted). On the procedure:
The ACE (EC 3.4.15.1; from rabbit lung, Sigma, A6778) inhibitory activity of hydrolysate and peptide fractions was measured spectrophotometrically according to Miguel et al. ([2004]). A hydrolysate solution (40 µL) mixed with a Hippuryl-His-Leu (HHL) (Sigma H4884) solution (5 mM in 100 mM potassium phosphate containing 300 mM sodium chloride, pH 8.3) as substrate was preincubated at 37 °C for 5 min, and the reaction was initiated by adding 20 µL (2 mU) of ACE solution and incubating for 30 min at the same temperature. The enzymatic reaction was halted by the addition of 150 µL of 1 M HCl. The liberated hippuric acid was extracted using 1 mL of ethyl acetate and vigorous shaking, after which 750 µL of the upper layer was transferred into a test tube and evaporated in a vacuum. The hippuric acid left in the tubes was re-dissolved in 800 µL of distilled water and the absorbance was measured at λ = 228 nm. All samples were tested in three replications. The inhibition activity was calculated using the following equation:
Inhibition activity (%) = [(A − B)/A] × 100 %
where A is the reaction blank, of which the mixture contained the same volume of the buffer solution instead of the ACE inhibitor sample; B is the reaction in the presence of both ACE and its inhibitor. The IC50 value was estimated from a dose–response curve of an inhibitor versus the ACE activity.

Assay [3] concerns the target α-Glucosidase from Saccharomyces cerevisiae (Saccharomyces cerevisiae, UniProt P53341). The assay can be described thus: α-Glucosidase inhibitory activity (pNPG substrate). The assay is classed as biochemical. As to conditions: synthetic peptides, mean n = 3; for IC50: read-out: Enzyme inhibitory activity (IC50) α-Glucosidase (converted). As for the experimental part:
The α-glucosidase inhibition assay was performed according to the method of Yu et al. ([2011]). α-Glucosidase from Saccharomyces cerevisiae (Sigma G0660) hydrolyzes the substrate—p-nitrophenyl glucopyranoside (pNPG) (Sigma N1377) and the thus produced p-nitrophenol can be measured spectrophotometrically. 5 µL of the α-glucosidase solution (10 U/mL, in 0.1 M potassium phosphate buffer, pH 6.8) was premixed with 10 µL of the sample solution at different concentrations (in 10 % DMSO) in 620 µL of 0.1 M potassium phosphate buffer (pH 6.8). Following incubation at 37.5 °C for 20 min, 10 µL of p-nitrophenyl glucopyranoside (pNPG 10 mM) as substrate was added to the mixture to start the reaction and was then incubated at 37.5 °C for 30 min, followed by addition of 650 µL of 1 M Na2CO3 solution to terminate the reaction. The amount of released product (p-nitrophenol) was measured at λ = 410 nm. The IC50 value was defined as the concentration of inhibitor required to inhibit 50 % of α-glucosidase activity under assay conditions.

For assay [4], the target named is T2, DPP-4 from porcine kidney (Sus scrofa, UniProt P22411).
T2 construct: DPP-4 from porcine kidney was purchased from Sigma (D7052); purchased Sigma D7052; host or cells: porcine kidney tissue
T2 sequence (P22411 whole entry): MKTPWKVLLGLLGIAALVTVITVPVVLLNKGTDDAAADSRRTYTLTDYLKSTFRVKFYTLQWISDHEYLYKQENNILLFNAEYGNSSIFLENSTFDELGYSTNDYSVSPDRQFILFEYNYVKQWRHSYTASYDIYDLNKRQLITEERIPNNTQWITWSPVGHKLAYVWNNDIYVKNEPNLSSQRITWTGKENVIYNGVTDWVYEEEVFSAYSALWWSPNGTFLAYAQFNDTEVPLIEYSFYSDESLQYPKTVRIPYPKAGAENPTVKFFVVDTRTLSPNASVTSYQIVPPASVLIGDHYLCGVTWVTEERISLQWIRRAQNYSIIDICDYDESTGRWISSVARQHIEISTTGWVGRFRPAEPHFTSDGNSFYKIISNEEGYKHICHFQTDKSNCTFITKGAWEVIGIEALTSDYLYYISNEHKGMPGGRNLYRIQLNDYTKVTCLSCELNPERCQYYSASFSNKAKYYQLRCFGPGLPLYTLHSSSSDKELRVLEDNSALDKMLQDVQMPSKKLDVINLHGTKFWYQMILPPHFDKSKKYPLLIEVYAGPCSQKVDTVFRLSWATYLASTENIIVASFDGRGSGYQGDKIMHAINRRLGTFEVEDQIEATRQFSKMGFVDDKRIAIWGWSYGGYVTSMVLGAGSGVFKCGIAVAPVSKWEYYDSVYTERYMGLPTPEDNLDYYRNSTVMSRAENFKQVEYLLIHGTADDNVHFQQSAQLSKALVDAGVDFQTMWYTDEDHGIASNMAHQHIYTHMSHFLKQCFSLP
The assay can be described thus: Dipeptidyl peptidase-4 (DPP-4) inhibitory activity (Gly-Pro-p-nitroanilide). The assay is classed as biochemical. As to conditions: synthetic peptides, mean n = 3; for IC50: read-out: Enzyme inhibitory activity (IC50) DPP-4 (converted). As for the experimental part:
DPP-4 inhibitory activity (IC50) was determined using a modified method of Lacroix and Li-Chan (2013). DPP-4 from porcine kidney was purchased from Sigma (D7052). The lyophilized peptide fractions were re-suspended in 0.1 M Tris–HCl buffer, pH 8.0. The test sample (25 μL) was preincubated with an equal volume of the substrate Gly-Pro-p-nitroanilide (1.6 mM) at 37 °C for 10 min. Afterwards, 50 μL of DPP-4 (0.01 U/mL, in 0.1 M Tris–HCl buffer, pH 8.0) was added and the mixture was incubated at 37 °C for 60 min. The reaction was stopped by the addition of 100 μL of 1 M sodium acetate buffer, pH 4.0. The released p-nitroanilide as a hydrolysis product was measured at λ = 405 nm.
The IC50 value was defined as the concentration of inhibitor required to inhibit 50 % of DPP-4 activity under assay conditions.

Assay [5] can be described thus: Antioxidant activity as ability to scavenge DPPH free radicals. As to conditions: synthetic peptides; mean n = 3. As for the experimental part:
The antioxidant activity of the obtained hydrolysates was assessed on the basis of the radical scavenging effect of the stable 1,1-diphenyl-2-picrylhydrazyl [DPPH (Sigma, D21140-0)]—free radical activity according to Yen and Chen ([1995]), with minor modifications. The tested samples were dissolved in water to a final volume of 1 mL and mixed with 1 mL of ethanol (98 %). The reaction was started by adding 0.5 mL of […] DPPH in ethanol. The mixtures were left for 30 min at room temperature and the absorbance of the resulting solutions was measured at 517 nm. For calibration, aqueous solutions of known Trolox concentrations ranging from 2 to 20 μg (able to scavenge 500 μL of 0.3 mM DPPH radical solution) were used. Radical scavenging activity of the peptides was expressed as µM troloxeq/mg protein.

The nature of assay [6]: FRAP method (ferric reducing antioxidant power). To be noted: synthetic peptides; mean n = 3. On the procedure:
The ferric reducing antioxidant power (FRAP) method was used to determine the antioxidative capacity of hydrolysates according to Benzie and Strain ([1996]). 3 mL of FRAP working solution [300 mM acetate buffer pH 3.6; 10 mM 2,4,6,tripyridyl-s-triazine (TPTZ) (Fluka, 93285) and 20 mM FeCl3 × 6 H2O (10:1:1 v/v)] was mixed with 1 mL of the sample. After 10 min of reaction, the absorbance was measured at λ = 593 nm. An aqueous solution of known Fe(II) concentration was used for calibration (in the range from 100 to 1,000 μg). Results were expressed as μg Fe^2+/mg protein.

A short description of assay [7]: Fe(II) ion chelation (ferrozine). To be noted: synthetic peptides; mean n = 3. As for the experimental part:
Chelation of iron ions by hydrolysates was estimated by the method of Xu et al. ([2007]) with modifications. A 250 μL sample was mixed with 1,250 μL H2O and 110 μL 1 mM FeCl2. After 2 min, 1 mL of 500 μM ferrozine (Sigma 160601) aqueous solution was added and the mixture was allowed to react for 10 min. The absorbance of ferrous iron–ferrozine complex was measured spectrophotometrically at λ = 562 nm. A known concentration of FeCl2 (0–20 μg) was used to generate a standard curve and the ability to chelate iron ions was expressed as μg Fe^2+/mg protein.

α-Glucosidase from Saccharomyces cerevisiae, sequence (P53341 whole entry): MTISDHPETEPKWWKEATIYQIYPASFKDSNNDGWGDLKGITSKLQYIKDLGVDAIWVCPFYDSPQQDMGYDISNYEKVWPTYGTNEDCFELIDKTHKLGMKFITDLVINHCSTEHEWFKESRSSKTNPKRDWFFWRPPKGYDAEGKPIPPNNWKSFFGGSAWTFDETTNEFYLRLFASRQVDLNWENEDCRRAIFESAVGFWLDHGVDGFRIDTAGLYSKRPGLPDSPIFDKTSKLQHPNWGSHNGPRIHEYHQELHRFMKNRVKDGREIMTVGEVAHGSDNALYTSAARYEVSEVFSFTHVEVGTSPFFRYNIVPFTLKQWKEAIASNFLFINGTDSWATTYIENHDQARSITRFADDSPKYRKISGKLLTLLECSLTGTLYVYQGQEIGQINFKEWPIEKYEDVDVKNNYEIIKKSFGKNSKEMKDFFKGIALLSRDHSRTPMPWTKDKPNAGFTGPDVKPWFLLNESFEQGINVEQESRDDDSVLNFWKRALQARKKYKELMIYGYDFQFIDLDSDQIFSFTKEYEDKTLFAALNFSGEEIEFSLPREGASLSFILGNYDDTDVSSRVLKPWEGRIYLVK

Turning to KLPGF, the IC50 in assay [1] was 59.5 µM.

With VTGRFAGHPAAQ [VTGRFAGHPAAQ], the IC50 in assay [2] was 22.5 µM; in assay [3], 302 µM; in assay [4], 1160 µM.

For YIEAVNKVSPRAGQF-OH [YIEAVNKVSPRAGQF], the “Antioxidant activity DPPH” value in assay [5] is 2.2 µM Troloxeq/mg and 2.2c µM Troloxeq/mg. Further, the IC50 in assay [2] was 5.6 µM. The “Antioxidant activity FRAP” value in assay [6] was 61.0 µg Fe^2+/mg and 61.0b µg Fe^2+/mg. For the same substance, the “Enzyme inhibitory activity (IC50) α-Glucosidase” value in assay [3] is on record as “no impact”. In addition, the “Enzyme inhibitory activity (IC50) DPP-4” value in assay [4] was “no impact”. Further, the “Antioxidant activity CHEL.” value in assay [7] is on record as 25.2b µg Fe^2+/mg.

For YINQMPQKSRE [YINQMPQKSRE], the figures for the IC50 in assay [2], in assay [3] and in assay [4] were 7.25 µM, 1220 µM and 160 µM, respectively.

For YINQMPQKSREA [YINQMPQKSREA], the IC50 was 8.6 µM in assay [2], 310 µM in assay [3] and 243 µM in assay [4].
